Measured values: publication PMC3387330 (Amino acids, 2012)

Test: Metabolic stability of parent peptide in rat hepatocytes
Conditions: male, Sprague-Dawley

Row | Compound | half-life at 10 µM
1 | CSCC[C@H](NC(=O)[C@H](CC(C)C)NC(=O)[C@H](Cc1c[nH]cn1)NC(=O)CNC(=O)[C@@H](NC(=O)[C@H](C)NC(=O)[C@H](Cc1c[nH]c2ccccc12)NC(=O)[C@H](CCC(N)=O)NC(=O)CCCCCNC(=O)C(C)F)C(C)C)C(N)=O (some centres unmarked) [FP-BBN, FP-aca-QWAVGHLM-NH2] | ~25 min
2 | CSCC[C@H](NC(=O)[C@H](CC(C)C)NC(=O)[C@H](Cc1c[nH]cn1)NC(=O)CNC(=O)[C@@H](NC(=O)[C@H](C)NC(=O)[C@H](Cc1c[nH]c2ccccc12)NC(=O)[C@H](CCC(N)=O)NC(=O)CCCCCNC(=O)c1ccc(F)cc1)C(C)C)C(N)=O [FB-BBN, FB-aca-QWAVGHLM-NH2] | ~3.8 min
